This assay deals with human TRPA1 (Homo sapiens (Human), UniProt O75762). Nature of the assay: In vitro inhibition of human TRPA1, whole cell patch configuration. Conditions: current activation 10 μM AITC, tested concentrations 320 pM to 3.2 μM, read-out: hTRPA1 IC50. The assay is classed as cell-based. In short, it runs like this: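 Compound antagonism measured from voltage ramps (±100 or ±80 mV, 400 ms, every 4 s from −40 mV), analysed at −80 and 80 mV, or at constant −60 mV. HEPES-buffered NaCl bath, pH 7.4, EGTA or 2 mM Ca2+; temperature set by perfusion, within ±2° C; no junction-potential correction.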
Sequence of human TRPA1 (O75762 whole entry, the tested form may be a part): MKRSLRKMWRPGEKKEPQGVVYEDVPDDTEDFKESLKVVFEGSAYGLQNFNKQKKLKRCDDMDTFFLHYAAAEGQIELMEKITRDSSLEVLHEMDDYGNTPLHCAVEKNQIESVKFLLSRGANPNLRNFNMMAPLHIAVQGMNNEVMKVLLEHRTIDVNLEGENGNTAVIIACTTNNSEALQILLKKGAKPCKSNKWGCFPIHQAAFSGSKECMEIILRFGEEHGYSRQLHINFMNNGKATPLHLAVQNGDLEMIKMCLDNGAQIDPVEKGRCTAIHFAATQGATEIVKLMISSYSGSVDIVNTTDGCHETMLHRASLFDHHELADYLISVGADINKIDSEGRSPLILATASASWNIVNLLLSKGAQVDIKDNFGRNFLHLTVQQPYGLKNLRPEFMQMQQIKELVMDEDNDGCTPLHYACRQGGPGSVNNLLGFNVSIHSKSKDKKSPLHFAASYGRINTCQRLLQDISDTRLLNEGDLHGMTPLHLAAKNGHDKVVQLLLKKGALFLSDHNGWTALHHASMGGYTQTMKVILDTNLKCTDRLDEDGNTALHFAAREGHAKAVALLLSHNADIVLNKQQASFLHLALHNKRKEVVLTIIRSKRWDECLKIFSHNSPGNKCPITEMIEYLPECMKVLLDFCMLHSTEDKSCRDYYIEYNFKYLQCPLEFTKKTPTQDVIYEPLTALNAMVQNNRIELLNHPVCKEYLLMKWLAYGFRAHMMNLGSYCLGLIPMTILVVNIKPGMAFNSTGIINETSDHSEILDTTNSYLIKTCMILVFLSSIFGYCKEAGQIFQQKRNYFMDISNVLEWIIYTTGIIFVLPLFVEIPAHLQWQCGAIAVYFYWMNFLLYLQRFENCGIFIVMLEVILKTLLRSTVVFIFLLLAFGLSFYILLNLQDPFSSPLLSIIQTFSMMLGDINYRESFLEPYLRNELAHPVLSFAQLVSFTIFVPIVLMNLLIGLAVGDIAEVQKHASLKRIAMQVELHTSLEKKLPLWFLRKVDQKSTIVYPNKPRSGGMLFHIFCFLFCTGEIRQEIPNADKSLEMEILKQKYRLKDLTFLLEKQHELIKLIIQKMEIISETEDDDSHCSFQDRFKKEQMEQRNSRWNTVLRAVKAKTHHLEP

`CCC(=O)Cn1c(=O)c2c(ncn2[C@@H](C)C(=O)Nc2csc(-c3cnc(N4CC5C(C4)C5(F)F)nc3)n2)n(C)c1=O` (stereo partly drawn) [Compound 57, (2S)—N-(2-(2-(6,6-difluoro-3-azabicyclo[3.1.0]hexan-3-yl)pyrimidin-5-yl)thiazol-4-yl)-2-(3-methyl-2,6-dioxo-1-(2-oxobutyl)-2,3-dihydro-1H-purin-7(6H)-yl)propanamide]: the IC50 (commonly the concentration that inhibits the measured activity by half) stood at 0.002 µM.

For the molecule `CC#CCn1c(=O)c2c(ncn2[C@@H](C)C(=O)Nc2cccc(-c3cnc(N4CC5CC5C4)nc3)n2)n(C)c1=O` (stereo partly drawn) [Compound 168, (2S)—N-(6-(2-(3-azabicyclo[3.1.0]hexan-3-yl)pyrimidin-5-yl)pyridin-2-yl)-2-(1-(but-2-yn-1-yl)-3-methyl-2,6-dioxo-2,3-dihydro-1H-purin-7(6H)-yl)propanamide], the IC50 was found to be 0.012 µM.

Take `Cc1ncc(-c2nc(NC(=O)[C@H](C)n3cnc4c3c(=O)n(CC(F)(F)F)c(=O)n4C)cs2)cc1C(F)(F)F` [Compound 162, (S)-2-(3-methyl-2,6-dioxo-1-(2,2,2-trifluoroethyl)-2,3-dihydro-1H-purin-7(6H)-yl)-N-(2-(6-methyl-5-(trifluoromethyl)pyridin-3-yl)thiazol-4-yl)propanamide]: the half-inhibitory concentration (IC50) was determined as 0.022 µM.

For the molecule `Cc1cc(Cn2c(=O)c3c(ncn3[C@@H](C)C(=O)Nc3csc(-c4cnc(C)c(C(F)(F)F)c4)n3)n(C)c2=O)no1` [Compound 112, (S)-2-(3-methyl-1-((5-methylisoxazol-3-yl)methyl)-2,6-dioxo-2,3-dihydro-1H-purin-7(6H)-yl)-N-(2-(6-methyl-5-(trifluoromethyl)pyridin-3-yl)thiazol-4-yl)propanamide], the IC50 turned out to be 0.001 µM.

With `Cc1noc(Cn2c(=O)c3c(ncn3[C@@H](C)C(=O)Nc3cncc(-c4cnc(C(F)(F)F)c(C)c4)n3)n(C)c2=O)n1` [Compound 133, (S)-2-(3-methyl-1-((3-methyl-1,2,4-oxadiazol-5-yl)methyl)-2,6-dioxo-2,3-dihydro-1H-purin-7(6H)-yl)-N-(6-(5-methyl-6-(trifluoromethyl)pyridin-3-yl)pyrazin-2-yl)propanamide], the IC50 was found to be 0.009 µM.

For the molecule `Cc1noc(Cn2c(=O)c3c(ncn3[C@@H](C)C(=O)Nc3ccnc(-c4cnc(C(F)(F)F)c(C)c4)n3)n(C)c2=O)n1` [Compound 150, (S)-2-(3-methyl-1-((3-methyl-1,2,4-oxadiazol-5-yl)methyl)-2,6-dioxo-2,3-dihydro-1H-purin-7(6H)-yl)-N-(2-(5-methyl-6-(trifluoromethyl)pyridin-3-yl)pyrimidin-4-yl)propanamide], the 50% inhibitory concentration (IC50) was found to be 0.004 µM.

Consider `Cn1c(=O)n(Cc2ccccn2)c(=O)c2c1ncn2CC(=O)Nc1csc(-c2ccc(Cl)cc2)n1` [Compound 190], for which the IC50 is 0.017 µM.

For the molecule `Cc1nc2c(c(=O)n(Cc3ccccn3)c(=O)n2C)n1CC(=O)Nc1cccc(-c2ccc(Cl)cc2)n1` [Compound 174, N-(6-(4-chlorophenyl)pyridin-2-yl)-2-(3,8-dimethyl-2,6-dioxo-1-(pyridin-2-ylmethyl)-2,3-dihydro-1H-purin-7(6H)-yl)acetamide], the IC50 worked out at 0.024 µM.

Take `C[C@@H](C(=O)Nc1cccc(-c2cnc(C(F)(F)F)nc2)n1)n1cnc2c1c(=O)n(CC1CCO1)c(=O)n2C` (stereo partly drawn) [Compound 88, (2S)-2-(3-methyl-1-(oxetan-2-ylmethyl)-2,6-dioxo-2,3-dihydro-1H-purin-7(6H)-yl)-N-(6-(2-(trifluoromethyl)pyrimidin-5-yl)pyridin-2-yl)propanamide]: the IC50 is 0.894 µM.

`CC(=O)CCn1c(=O)c2c(ncn2CC(=O)Nc2cccc(-c3cnc(C)c(C(F)(F)F)c3)n2)n(C)c1=O` [Compound 242, 2-(3-methyl-2,6-dioxo-1-(3-oxobutyl)-2,3-dihydro-1H-purin-7(6H)-yl)-N-(6′-methyl-5′-(trifluoromethyl)-[2,3′-bipyridin]-6-yl)acetamide]: the IC50 turned out to be 0.29 µM.

(Values after US10221177B2 (HYDRA BIOSCIENCES, INC., priority 2014, dated 2019).)
